Entries after “also recorded” stand apart in the source; their conditions may differ.
tested on: protein kinase; assay: HTS ATP-utilizing enzyme assay, off-chip mobility-shift format (Caliper HTS 250); assay type: biochemical, human; conditions: test compound 10 μM; active = activity greater than three-sigma from the mean of the predominately inactive population for that enzyme
Summary of the method: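 Kinase reactions ran 2.5 h at 20 to 22 °C with test compound at 10 μM, in a HEPES pH 7.5 master buffer containing Triton X-100 and BSA. Peptide substrate and phosphorylated product separated by mobility shift; inhibition normalized to DMSO (0%) and EDTA (100%) controls, with three-sigma thresholds for hits.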

Row | SMILES | protein kinase against which the compound exhibits inhibitory activity (Table 3)
1 | CC(C)Cc1nnc(SCc2ccccc2)n1Cc1ccc(Cl)c(Cl)c1 [3-(benzylthio)-4-(3,4-dichlorobenzyl)-5-isobutyl-4H-1,2,4-triazole] | AURORA-A
2 | Cc1nnc(SCc2ccccc2)n1Cc1ccc(Cl)c(Cl)c1 [3-(benzylthio)-4-(3,4-dichlorobenzyl)-5-methyl-4H-1,2,4-triazole] | GSK3-α; also recorded: GSK3-β; also recorded: c-TAK1
3 | CCC(c1ccccc1)c1nnc(SCc2ccccc2)n1CCc1ccc(C)cc1 (stereo not drawn) [3-(benzylthio)-4-(4-methylphenethyl)-5-(1-phenylpropyl)-4H-1,2,4-triazole] | c-TAK1
4 | Cc1nnc(SCc2ccccc2)n1Cc1ccco1 [3-(benzylthio)-4-(furan-2-ylmethyl)-5-methyl-4H-1,2,4-triazole] | GSK3-α
5 | CCn1c(C)nnc1SCc1ccccc1 [3-(benzylthio)-4-ethyl-5-methyl-4H-1,2,4-triazole] | GSK3-α
6 | Clc1cccc(-c2nnc(SCc3ccccc3)[nH]2)c1 [3-(benzylthio)-5-(3-chlorophenyl)-4H-1,2,4-triazole] | AURORA-A; also recorded: c-TAK1; also recorded: FLT-3
7 | COc1ccc(-c2nnc(SCc3ccccc3)n2-c2ccccc2)cc1 [3-(benzylthio)-5-(4-methoxyphenyl)-4-phenyl-4H-1,2,4-triazole] | INSR and SYK and PAK2
8 | C=CCCc1nnc(SCc2ccccc2)n1Cc1ccc(Cl)c(Cl)c1 [3-(benzylthio)-5-(but-3-enyl)-4-(3,4-dichlorobenzyl)-4H-1,2,4-triazole] | AURORA-A; also recorded: c-TAK1
9 | Clc1ccc(Cn2c(SCc3ccccc3)nnc2C2CCCCC2)cc1Cl [3-(benzylthio)-5-cyclohexyl-4-(3,4-dichlorobenzyl)-4H-1,2,4-triazole] | c-TAK1
10 | Cc1nnc(SCc2ccccc2)n1CCc1ccccc1 [3-(benzylthio)-5-methyl-4-phenethyl-4H-1,2,4-triazole] | GSK3-β; also recorded: GSK3-α; also recorded: c-TAK1
11 | Cc1nnc(SCc2ccccc2)[nH]1 [3-(benzylthio)-5-methyl-4H-1,2,4-triazole] | AURORA-A; also recorded: DYRK2
12 | c1ccc(CCSc2nnc(-c3ccc(-c4ccccc4)cc3)[nH]2)cc1 [3-(biphenyl-4-yl)-5-(phenethylthio)-4H-1,2,4-triazole] | AURORA-A
13 | CCCCSc1nnc(-c2ccc(Cl)c(Cl)c2)[nH]1 [3-(butylthio)-5-(3 ,4-dichlorophenyl)-4H-1,2,4-triazole] | AURORA-A; also recorded: FLT-3; also recorded: GSK3-α
14 | CCCCSc1nnc(-c2cccc(C(F)(F)F)c2)[nH]1 [3-(butylthio)-5-(3-(trifluoromethyl)phenyl)-4H-1,2,4-triazole] | AURORA-A; also recorded: FLT-3; also recorded: GSK3-α
15 | CCCCSc1nnc(-c2ccc(F)cc2)[nH]1 [3-(butylthio)-5-(4-fluorophenyl)-4H-1,2,4-triazole] | AURORA-A; also recorded: FLT-3; also recorded: DYRK2
16 | CCCCSc1nnc(-c2ccc(OC)cc2)[nH]1 [3-(butylthio)-5-(4-methoxyphenyl)-4H-1,2,4-triazole] | AURORA-A; also recorded: FLT-3; also recorded: GSK3-α
17 | CCCCSc1nnc(-c2ccc([N+](=O)[O-])cc2)[nH]1 [3-(butylthio)-5-(4-nitrophenyl)-4H-1,2,4-triazole] | AURORA-A; also recorded: GSK3-α

Row | SMILES | protein kinase against which the compound exhibits inhibitory activity (Table 3)
18 | CCCCSc1nnc(COc2ccc(Cl)cc2)[nH]1 [3-(butylthio)-5-((4-chlorophenoxy)methyl)-4H-1,2,4-triazole] | FLT-3
19 | CCCCSc1nnc(-c2ccccc2)[nH]1 [3-(butylthio)-5-phenyl-4H-1,2,4-triazole] | AURORA-A; also recorded: FLT-3; also recorded: c-TAK1
20 | COc1ccc(-c2nnc(SCC3CCCCC3)[nH]2)cc1 [3-(cyclohexylmethylthio)-5-(4-methoxyphenyl)-4H-1,2,4-triazole] | AURORA-A; also recorded: c-TAK1
21 | c1csc(-c2nnc(SCC3CCCCC3)[nH]2)c1 [3-(cyclohexylmethylthio)-5-(thiophen-2-yl)-4H-1,2,4-triazole] | AURORA-A; also recorded: DYRK2
22 | Cc1cccc(-c2nnc(SCC3CCCCC3)[nH]2)c1 [3-(cyclohexylmethylthio)-5-m-tolyl-4H-1,2,4-triazole] | AURORA-A; also recorded: c-TAK1
23 | Cc1nnc(SCC2CCCCC2)[nH]1 [3-(cyclohexylmethylthio)-5-methyl-4H-1,2,4-triazole] | AURORA-A; also recorded: GSK3-α
24 | c1ccc(-c2nnc(SCC3CCCCC3)[nH]2)cc1 [3-(cyclohexylmethylthio)-5-phenyl-4H-1,2,4-triazole] | AURORA-A; also recorded: c-TAK1; also recorded: CHEK2
25 | FC(F)(F)Oc1ccc(-c2nnc(SCC3CC3)[nH]2)cc1 [3-(cyclopropylmethylthio)-5-(4-(trifluoromethoxy)phenyl)-4H-1,2,4-triazole] | FLT-3; also recorded: AURORA-A
26 | c1ccc(OCc2nnc(SCC3CC3)[nH]2)cc1 [3-(cyclopropylmethylthio)-5-(phenoxymethyl)-4H-1,2,4-triazole] | GSK3-α; also recorded: GSK3-β; also recorded: AURORA-A
27 | CCSc1nnc(-c2ccc([N+](=O)[O-])cc2)n1C [3-(ethylthio)-4-methyl-5-(4-nitrophenyl)-4H-1,2,4-triazole] | PDGFRR-α and FYN
28 | CCC(c1ccccc1)c1nnc(SCc2cccc3ccccc23)[nH]1 (stereo not drawn) [3-(naphthalen-1-ylmethylthio)-5-(1-phenylpropyl)-4H-1,2,4-triazole] | AURORA-A
29 | Cc1cccc(-c2nnc(SCc3cccc4ccccc34)[nH]2)c1 [3-(naphthalen-1-ylmethylthio)-5-m-tolyl-4H-1,2,4-triazole] | AURORA-A
30 | FC(F)(F)c1cccc(-c2nnc(SCCc3ccccc3)[nH]2)c1 [3-(phenethylthio)-5-(3-(trifluoromethyl)phenyl)-4H-1,2,4-triazole] | AURORA-A; also recorded: GSK3-α
31 | c1ccc(CCSc2nnc(-c3cccs3)[nH]2)cc1 [3-(phenethylthio)-5-(thiophen-2-yl)-4H-1,2,4-triazole] | AURORA-A; also recorded: FLT-3
32 | COc1ccc(-n2c(Cc3ccccc3)nnc2SC)cc1 [3-benzyl-4-(4-methoxyphenyl)-5-(methylthio)-4H-1,2,4-triazole] | AKT1
33 | Cc1ccc(CSc2nnc(Cc3ccccc3)[nH]2)cc1 [3-benzyl-5-(4-methylbenzylthio)-4H-1,2,4-triazole] | AURORA-A

From US20050288347A1, “Certain triazole-based compounds, compositions, and uses thereof” (priority 2004, published 2005)
